Experimental data taken from ChEMBL document CHEMBL2163210, “Aryl Piperazinyl Ureas as Inhibitors of Fatty Acid Amide Hydrolase (FAAH) in Rat, Dog, and Primate” (ACS Med Chem Lett, 2012).

Assays:
[1] = test system: Rattus norvegicus; test: Inhibition of FAAH in rat at 3 mg/kg, po at 12 hrs; assay type: functional
[2] = Ratio of drug level in brain to plasma in rat at 0.3 to 10 mg/kg, po; assay type: ADME, organism-based; design: dose 0.3-10 mg/kg, route oral; conditions: read-out: BPR
[3] = test system: Rattus norvegicus; test: Inhibition of rat FAAH assessed as increase in brain N-palmitoylethanolamide level at 10 mg/kg, po at 4 hrs relative to control; assay type: functional
[4] = test system: Rattus norvegicus; test: Inhibition of rat FAAH assessed as increase in plasma N-oleoylethanolamide level at 3 mg/kg, po at 4 hrs relative to control; assay type: functional
[5] = Volume of distribution at steady state in Beagle dog at 1 mg/kg, iv and 5 mg/kg, po; assay type: ADME, organism-based, Canis lupus familiaris; conditions: in vivo, read-out: Vdss
[6] = test system: Canis familiaris; test: Inhibition of Beagle dog FAAH assessed as increase in plasma N-palmitoylethanolamide level at 1 mg/kg, iv and 5 mg/kg, po at 6 to 8 hrs relative to control; assay type: functional, Canis lupus familiaris
[7] = test system: Rattus norvegicus; test: Apparent volume of distribution in rat at 0.3 to 10 mg/kg, po; assay type: ADME, organism-based; design: dose 0.3-10 mg/kg, route oral; conditions: in vivo
[8] = Clearance in Beagle dog at 1 mg/kg, iv and 5 mg/kg, po; assay type: ADME, organism-based, Canis lupus familiaris; conditions: in vivo
[9] = test system: Rattus norvegicus; test: Inhibition of rat FAAH assessed as increase in brain N-oleoylethanolamide level at 10 mg/kg, po at 4 hrs relative to control; assay type: functional
[10] = test system: Canis familiaris; test: Inhibition of Beagle dog FAAH assessed as increase in plasma N-oleoylethanolamide level at 1 mg/kg, iv and 5 mg/kg, po at 2 to 3 hrs relative to control; assay type: functional, Canis lupus familiaris
[11] = biological target: T1, Fatty-acid amide hydrolase 2 (Homo sapiens, UniProt Q6GMR7); test: Inhibition of FAAH2
T1 sequence (Q6GMR7 whole entry): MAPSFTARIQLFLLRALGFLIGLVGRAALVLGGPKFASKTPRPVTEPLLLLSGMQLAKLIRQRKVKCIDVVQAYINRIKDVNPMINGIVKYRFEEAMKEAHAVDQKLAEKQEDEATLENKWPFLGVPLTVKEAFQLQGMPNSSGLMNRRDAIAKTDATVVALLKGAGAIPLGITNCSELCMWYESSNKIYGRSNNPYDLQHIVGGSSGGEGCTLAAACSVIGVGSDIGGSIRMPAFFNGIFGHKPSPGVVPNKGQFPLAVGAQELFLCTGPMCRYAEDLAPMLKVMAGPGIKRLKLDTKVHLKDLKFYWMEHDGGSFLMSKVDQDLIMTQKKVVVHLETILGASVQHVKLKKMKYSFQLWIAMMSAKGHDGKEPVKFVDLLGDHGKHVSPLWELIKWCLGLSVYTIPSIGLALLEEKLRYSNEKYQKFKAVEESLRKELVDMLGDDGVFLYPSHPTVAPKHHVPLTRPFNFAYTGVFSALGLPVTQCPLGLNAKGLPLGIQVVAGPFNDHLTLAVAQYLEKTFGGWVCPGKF

[12] = Plasma concentration in rat at 3 mg/kg, po at 12 hrs; assay type: ADME, organism-based; design: dose 3 mg/kg, route oral
[13] = Plasma concentration in rat at 3 mg/kg, po at 4 hrs; assay type: ADME, organism-based; design: dose 3 mg/kg, route oral
[14] = Plasma concentration in rat at 3 mg/kg, po at 6 hrs; assay type: ADME, organism-based; design: dose 3 mg/kg, route oral
[15] = test system: Brain; test: Drug uptake in po dosed rat brain; assay type: ADME, organism-based; conditions: in vivo
[16] = Apparent volume of distribution in cynomolgus monkey at 1 mg/kg, iv and 5 mg/kg, po; assay type: ADME, organism-based, Macaca fascicularis; conditions: in vivo, read-out: Vz
[17] = Oral bioavailability in cynomolgus monkey at 5 mg/kg; assay type: ADME, organism-based, Macaca fascicularis; conditions: in vivo
[18] = test system: Rattus norvegicus; test: Inhibition of rat FAAH assessed as increase in plasma anandamide level at 3 mg/kg, po at 4 hrs relative to control; assay type: functional
[19] = Clearance in rat at 0.3 to 10 mg/kg, po; assay type: ADME, organism-based; design: dose 0.3-10 mg/kg, route oral; conditions: in vivo
[20] = test system: Rattus norvegicus; test: Inhibition of rat FAAH assessed as increase in brain anandamide level at 10 mg/kg, po at 4 hrs relative to control; assay type: functional
[21] = test system: Cynomolgus monkey; test: Inhibition of cynomolgus monkey FAAH assessed as increase in plasma anandamide level at 1 mg/kg, iv at 4 hrs relative to control; assay type: functional; conditions: Macaca fascicularis
[22] = test system: Canis familiaris; test: Inhibition of Beagle dog FAAH assessed as increase in plasma anandamide level at 1 mg/kg, iv and 5 mg/kg, po at 2 to 3 hrs relative to control; assay type: functional, Canis lupus familiaris
[23] = Clearance in cynomolgus monkey at 1 mg/kg, iv and 5 mg/kg, po; assay type: ADME, organism-based, Macaca fascicularis; conditions: in vivo
[24] = test system: Cynomolgus monkey; test: Inhibition of cynomolgus monkey FAAH assessed as increase in plasma N-oleoylethanolamide level at 1 mg/kg, iv at 4 hrs relative to control; assay type: functional; conditions: Macaca fascicularis
[25] = test system: Rattus norvegicus; test: Volume of distribution at steady state in rat at 0.3 to 10 mg/kg, po; assay type: ADME, organism-based; design: dose 0.3-10 mg/kg, route oral; conditions: in vivo
[26] = Plasma concentration in rat at 3 mg/kg, po at 24 hrs; assay type: ADME, organism-based; design: dose 3 mg/kg, route oral
[27] = test system: Cynomolgus monkey; test: Inhibition of cynomolgus monkey FAAH assessed as increase in plasma N-palmitoylethanolamide level at 1 mg/kg, iv at 4 hrs relative to control; assay type: functional; conditions: Macaca fascicularis
[28] = Oral bioavailability in Beagle dog at 5 mg/kg; assay type: ADME, organism-based, Canis lupus familiaris; conditions: in vivo
[29] = test system: Rattus norvegicus; test: Inhibition of rat FAAH assessed as increase in plasma N-palmitoylethanolamide level at 3 mg/kg, po at 4 hrs relative to control; assay type: functional
[30] = Oral bioavailability in rat at 0.3 to 10 mg/kg; assay type: ADME, organism-based; conditions: in vivo
[31] = test system: Plasma; test: Drug uptake in po dosed rat plasma; assay type: ADME, organism-based; conditions: in vivo
[32] = Volume of distribution at steady state in cynomolgus monkey at 1 mg/kg, iv and 5 mg/kg, po; assay type: ADME, organism-based, Macaca fascicularis; conditions: in vivo, read-out: Vdss
[33] = Apparent volume of distribution in Beagle dog at 1 mg/kg, iv and 5 mg/kg, po; assay type: ADME, organism-based, Canis lupus familiaris; conditions: in vivo, read-out: Vz
[34] = biological target: T2, Fatty-acid amide hydrolase 1 (Rattus norvegicus, UniProt P97612)
T2 sequence (P97612 whole entry): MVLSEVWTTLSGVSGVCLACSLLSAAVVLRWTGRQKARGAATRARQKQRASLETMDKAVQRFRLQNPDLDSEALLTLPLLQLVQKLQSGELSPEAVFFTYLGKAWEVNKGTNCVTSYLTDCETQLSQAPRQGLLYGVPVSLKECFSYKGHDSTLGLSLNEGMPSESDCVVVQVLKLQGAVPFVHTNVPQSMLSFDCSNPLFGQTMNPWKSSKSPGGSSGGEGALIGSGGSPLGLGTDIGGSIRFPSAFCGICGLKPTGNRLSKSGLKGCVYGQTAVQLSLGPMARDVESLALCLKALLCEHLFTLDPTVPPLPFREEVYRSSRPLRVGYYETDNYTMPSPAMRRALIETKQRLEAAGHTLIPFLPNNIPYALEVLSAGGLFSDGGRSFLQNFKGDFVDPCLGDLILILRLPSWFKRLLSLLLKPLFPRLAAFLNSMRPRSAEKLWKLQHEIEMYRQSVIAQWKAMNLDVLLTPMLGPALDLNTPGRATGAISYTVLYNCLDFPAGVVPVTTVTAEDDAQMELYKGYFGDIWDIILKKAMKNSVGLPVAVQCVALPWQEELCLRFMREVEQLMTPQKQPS
Description: Inhibition of rat FAAH after 1 hr

[35] = biological target: T3, Fatty-acid amide hydrolase 1 (Homo sapiens, UniProt O00519); test: Inhibition of human FAAH after 1 hr
T3 sequence (O00519 whole entry): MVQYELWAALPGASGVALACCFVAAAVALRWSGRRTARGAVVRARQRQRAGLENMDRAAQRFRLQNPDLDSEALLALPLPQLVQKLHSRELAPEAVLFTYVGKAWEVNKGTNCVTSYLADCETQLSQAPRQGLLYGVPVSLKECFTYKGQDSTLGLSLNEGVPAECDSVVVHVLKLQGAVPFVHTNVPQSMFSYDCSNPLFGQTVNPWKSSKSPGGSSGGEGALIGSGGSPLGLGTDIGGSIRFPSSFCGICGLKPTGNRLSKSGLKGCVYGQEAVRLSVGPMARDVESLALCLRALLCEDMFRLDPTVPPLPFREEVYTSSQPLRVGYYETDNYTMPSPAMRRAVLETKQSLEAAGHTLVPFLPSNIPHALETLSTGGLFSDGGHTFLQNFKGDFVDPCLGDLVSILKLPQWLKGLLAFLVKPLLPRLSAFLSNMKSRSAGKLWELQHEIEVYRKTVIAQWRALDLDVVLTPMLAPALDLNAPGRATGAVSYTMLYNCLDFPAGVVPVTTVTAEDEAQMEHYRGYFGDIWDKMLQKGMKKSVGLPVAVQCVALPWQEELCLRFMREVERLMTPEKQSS

## O=C(Nc1cccnc1)N1CCN(Cc2cccc(Oc3ccc(Cl)cc3)c2)CC1
[1]
  inhibition in vivo at 3 mg/kg: 90%
[2]
  Kp: 2.62
[3]
  fold change (FC): 3.7
[4]
  fold change (FC): 1.9
[5]
  Vd: 1.24 L/kg
[6]
  fold change (FC): >30
[7]
  Vz: 8.3 L/kg
[8]
  clearance: 38.3 mL/min/kg
[9]
  fold change (FC): 3.25
[10]
  fold change (FC): >30
[11]
  IC50: > 10000 nM
[12]
  concentration at 12 h: 200 nM
[13]
  concentration at 4 h: 800 nM
[14]
  concentration at 6 h: 600 nM
[15]
  Drug uptake: Dose-dependent effect
[16]
  Vd: 2.18 L/kg
[17]
  bioavailability: 62%
[18]
  fold change (FC): 3
[19]
  CL/F: 11.5 mL/min/kg
[20]
  fold change (FC): 1.75
[21]
  inhibition in vivo at 1 mg/kg: 300%
[22]
  fold change (FC): >30
[23]
  clearance: 25.3 mL/min/kg
[24]
  inhibition in vivo at 1 mg/kg: 150%
[25]
  Vdss: 3.2 L/kg
[26]
  concentration at 24 h: 15 nM
[27]
  inhibition in vivo at 1 mg/kg: 150%
[28]
  bioavailability: 39%
[29]
  fold change (FC): 2.25
[30]
  bioavailability: 53%
[31]
  Cp: Dose-dependent effect
[32]
  Vd: 1.89 L/kg
[33]
  Vd: 1.4 L/kg

## O=C(Nc1ccccc1)N1CCN(Cc2ccccc2Cl)CC1
[34]
  IC50: > 10000 nM
[35]
  IC50: 4670 nM

## O=C(Nc1ccccc1)N1CCN(Cc2ccc(Oc3ccccc3)cc2)CC1
[34]
  IC50: > 10000 nM
[35]
  IC50: 2830 nM

## O=C(Nc1ccccc1)N1CCN(Cc2ccccc2)CC1
[34]
  IC50: > 10000 nM
[35]
  IC50: > 10000 nM

## N#Cc1ccc(CN2CCN(C(=O)Nc3ccccc3)CC2)cc1
[34]
  IC50: 7670 nM
[35]
  IC50: 4670 nM

## COc1ccc(Oc2cccc(CN3CCN(C(=O)Nc4ccccc4)CC3)c2)cc1
[34]
  IC50: 133 nM
[35]
  IC50: 12 nM

## O=C(Nc1ccccn1)N1CCN(Cc2cccc(Oc3ccc(Cl)cc3)c2)CC1
[34]
  IC50: 470 nM
[35]
  IC50: 12 nM

## O=C(Nc1ccncn1)N1CCN(Cc2cccc(Oc3ccc(Cl)cc3)c2)CC1
[34]
  IC50: 1500 nM
[35]
  IC50: 41 nM

## Cc1ccc(Oc2cccc(CN3CCN(C(=O)Nc4ccccc4)CC3)c2)cc1
[34]
  IC50: 640 nM
[35]
  IC50: 11 nM

## O=C(Nc1ccncc1)N1CCN(Cc2cccc(Oc3ccc(Cl)cc3)c2)CC1
[34]
  IC50: 520 nM
[35]
  IC50: 15 nM

## N#Cc1cccc(CN2CCN(C(=O)Nc3ccccc3)CC2)c1
[35]
  IC50: 6670 nM

## CC(C)(C)c1ccc(Oc2cccc(CN3CCN(C(=O)Nc4ccccc4)CC3)c2)cc1
[34]
  IC50: 75 nM
[35]
  IC50: 46 nM

## COc1cccc(CN2CCN(C(=O)Nc3ccccc3)CC2)c1
[35]
  IC50: 1530 nM

## O=C(Nc1ccccc1)N1CCN(Cc2ccc(C(F)(F)F)cc2)CC1
[34]
  IC50: 260 nM
[35]
  IC50: 50 nM
